Where “and” joins values, the source holds several entries; their conditions need not be identical. Identical values can stand only once.
Experiments:
pituitary-ovarian axis = conditions: sufficient single dose, monkeys, follicular phase; cited from earlier work
[1] = test system: adult female cynomolgus monkeys; test: Part I dose-finding study: residual serum estradiol (RIA) during 14 days of daily im GnRH antagonist; type: in vivo; conditions: 0.1 mg/kg im daily; individual monkeys for whom the dose was too much, predominately
Method: (§1) Eleven adult female cynomolgus monkeys having regular and presumably ovulatory menstrual cycles were entered into the study. Body weights were determined monthly. Menstrual bleeding and spotting were recorded daily by visual inspection of external genitalia and insertion of vaginal swabs using a saline moistened cotton-tipped applicator, respectively. Blood samples were collected from femoral vessels and the serum stored for subsequent RIA of estradiol and progesterone. Coefficients of variation for these assays were: 7.4 and 11.1; and 7.0 and 10.9%, respectively, for within and between assays. The GnRH antagonist (GnRHant) used was Nal-Glu: [Ac-D2NAL, 4ClDPhe^2, D3Pal^3, Arg^5, DGlu^6 (AA), DAla^10 ]-GnRH.
In Part I of the study, the object was to perform a brief dose-finding study that indicated residual serum estradiol levels in intact primates previously illustrating regular menstrual cycles. Specifically sought was an approximation of the minimal daily im dose of Nal-Glu sufficient to suppress circulating estradiol levels into the target range: less than 45 pg/ml but more than 35 pg/ml. Beginning on day 2 of the menstrual cycle, Nal-Glu GnRHant, suspended in sesame oil, was administered between 9 and 10 am in doses of 0.1 (n=5) and 0.3 mg/kg (n=6) for 14 days. Femoral blood was obtained daily under ketamine anesthesia. […]

[2] = test system: adult female cynomolgus monkeys; test: Part II: titering the GnRHant dose to individual monkeys with periodic progesterone challenge tests (withdrawal bleeding versus amenorrhea, serum estradiol RIA); type: in vivo
Method: as §1
Concurrently, a pair of progesterone-loaded silastic implants were inserted sc during GnRHant treatment from day 20 and 30, and then removed. If withdrawal menses occurred during the next week, the individual Nal-Glu dose was raised to 0.1 mg/kg daily. […] Again, amenorrhea or withdrawal menses was recorded.
For definition, withdrawal bleeding was scored when blood was on the external genitalia for two or more consecutive days within the week following progesterone withdrawal. Spotting was scored when blood was evident only by coloration of the cotton swab upon insertion into the vagina.

| Substance | effect on the pituitary-ovarian axis (pituitary-ovarian axis) | serum estradiols of some primates [1] | mean serum estradiol concentrations ([2]; 8 monkeys after increase of the dose to 0.1 mg/kg im daily) | Amenorrhea Achieved (Monkeys) ([2]; first progesterone challenge test, withdrawal week days 31-37, all 11 monkeys at 0.05 mg/kg im daily) | monkeys manifesting frank withdrawal menses ([2]; first progesterone challenge test, 0.05 mg/kg im daily) | serum estradiol ([2]; lone resistant monkey at 0.2 mg/kg im daily, ultimately) | Amenorrhea Achieved (Monkeys) ([2]; second progesterone challenge test, withdrawal week days 61-67, doses 0.05 or 0.1 mg/kg im daily) | withdrawal outcome of the two monkeys that remained on 0.05 mg/kg ([2]; second progesterone challenge test, 0.05 mg/kg im daily) | monkeys achieving withdrawal amenorrhea ([2]; second progesterone challenge test, the nine females raised to 0.1 mg/kg im daily on day 31) | mean serum estradiol levels ([2]; the two primates amenorrheic at 0.05 mg/kg im daily, target zone 35 to 45 pg/ml) | Amenorrhea Achieved (Monkeys) ([2]; third progesterone challenge test, withdrawal week days 91-97, doses 0.05, 0.1 or 0.2 mg/kg im daily) | Incidence of Spotting ([2]; week of progesterone withdrawal days 31-37, 0.05 mg/kg im daily) | Incidence of Spotting ([2]; week of progesterone withdrawal days 61-67, 0.05 or 0.1 mg/kg im daily) | Incidence of Spotting ([2]; week of progesterone withdrawal days 91-97, 0.05, 0.1 or 0.2 mg/kg im daily) |
| --- | --- | --- | --- | --- | --- | --- | --- | --- | --- | --- | --- | --- | --- | --- |
| D-Ac-D-2-Nal^1 -DpClPhe^2 -D-3-Pal^3 -Ser^4 -NiLys^5 -D-NicLys^6 -Leu^7 -ILys^8 -Pro^9 -D-Ala^10 [antide] | immediate and sustained inhibition of the pituitary-ovarian axis | – | – | – | – | – | – | – | – | – | – | – | – | – |
| [Ac-D2NAL, 4ClDPhe^2, D3Pal^3, Arg^5, DGlu^6 (AA), DAla^10 ]-GnRH [Nal-Glu] | – | < 25 pg/mL | approximately 40 pg/ml | two and 2/11 | Nine | under 20 pg/ml | 10/11 | remained amenorrheic | 8 of 9 | hovered in or near the target zone | all eleven and 11/11 | 13 days | 12 days | 0 days |

Reference: patent US5658884A, “Establishment of tonic ovarian estrogen secretion for extended therapeutic regimens” (The Medical College of Hampton Roads, priority 1995, dated 1997)
